The subject of this test is influenza virus A/PR/8/34 (H1N1). Description: organism not typed. The class given is cell-based. Particulars: read-out: IC50 (anti-viral activity, 50% inhibitory concentration).
[1] abbreviates: MDCK cells infected with 100TCID50 of influenza A/PR/8/34 (H1N1), treatment for 48 h, Reed-Muench method.

Structures are written as SMILES. Like-named read-outs stand apart in the source and are kept apart here.

As to `O=C1Nc2ccccc2O[C@@H]1O` [Compound of Formula 5, 2-hydroxy-1,4-benzoxazin-3-one], the IC50 under setting [1] was over 200 µM.

Consider `O=Cc1c[nH]c2ccccc12` [Compound of Formula 7, 1H-indole-3-carbaldehyde], for which the IC50 under setting [1] amounted to 42 µM.

Consider `O=C1COc2ccccc2N1` [Compound of Formula 9, 2H-1,4-benzoxazin-3-one], for which the IC50 under setting [1] is over 200 µM.

As for `C=C(CO)[C@@H]1CC[C@]2(C)CC[C@]3(C)[C@H](CC[C@@H]4[C@@]5(C)CC[C@H](O)C(C)(C)C5CC[C@]43C)[C@@H]12` (stereo partly drawn) [Compound of Formula 19, lup-20(29)-en-3β, 30-diol], the IC50 (MDCK, 48 h) worked out at 33.6 µM.

Regarding `NC(=O)c1ncn([C@@H]2O[C@H](CO)[C@@H](O)[C@H]2O)n1` [ribavirin, reference compound], the IC50 under setting [1] was 30.4 µM.

(Values after patent US10537601B2, “Method of isolating anti-viral ingredients from Baphicacanthus cusia, compositions comprising them and their medical use” (priority 2016, dated 2020).)
